According to BindingDB's records for doi:10.1016/j.bmcl.2011.01.015 (Incyte, 2011):

Assay: Antagonist activity at human CCR5 receptor by chemotaxis assay

IC50: 11 nM
SMILES: CO[C@@H]1COCC[C@@H]1N[C@@H]1CC[C@](CC(F)(F)F)(C(=O)N2CCN(c3cc(C(F)(F)F)ccn3)CC2)C1 [((1S,3R)-3-((3S,4S)-3-methoxy-tetrahydro-2H-pyran-4-ylamino)-1-(2,2,2-trifluoroethyl)cyclopentyl)(4-(4-(trifluoromethyl)pyridin-2-yl)piperazin-1-yl)methanone]
